Measurements from patent US6638966B2 (University of Iowa Research Foundation, priority 2000, dated 2003).

Assays:
[1] = tested on: rats; assay: Cumulative i.v. doses: indices of anesthesia in rats (righting reflex, grip strength, eyelash reflex, paw withdrawal threshold); assay type: in vivo, rat; details: for estimated ED95 (and 95% CI) for loss of righting reflex: cumulative i.v. injection of divided doses; for effect on righting reflex, grip strength and eyelash reflex: three cumulative i.v. doses about 1 min apart: 6.67 mg/kg thiopental, 3.3 mg/kg propofol, 70 mg/kg melatonin
Experimental: (§1) After the final cumulative dose, measurements of anesthesia end-points were made at fixed intervals for an additional 20 minutes. […] Measurements of anesthesia end-points were made in these rats at fixed intervals for 20 minutes. Righting reflex was scored on a four-point scale (1=immediate/brisk, both feet under the rat; 2=complete, but slower than normal; 3=slow, feet not placed under body; and 4=absent). The threshold pressure (mm Hg) at which the rat withdrew or vocalized after pinch of one hindpaw was measured. For paw pinch, a subminiature, very low profile load cell Omega part number LCKD-1KG, measurement range of 0-1 kg) (OMEGA Engineering, INC., Stamford, Conn.) was used to measure the amount of pressure applied to the rat's paw. The action of compressing the load cell between the faces of the sponge clamp assembly results in a change in impedance within the load cell, and this in turn, was then converted to mm Hg pressure by the monitor. The presence or absence of eyelash reflex was noted on a three-point scale (1=normal, 2=weak; and 3=absent). The strength of grip by the forepaws was determined on a four-point scale (0=absent, 1=weak, 2=moderate and 3=strong).
(§2) Thiopental was purchased from Abbott Laboratories (Northern Chicago, Ill.). Propofol was purchased from Zeneca Pharmaceuticals (Wilmington, Del.). […] Thiopental and propofol were dissolved in saline and Intralipid™ respectively. […] For the bolus injections, the volume of drug injected ranged from 0.6 to 0.75 ml.

[2] = tested on: rats; assay: Single bolus i.v. injection: time course of indices of anesthesia in rats; assay type: in vivo, rat; details: for time for which loss of righting reflex and grip strength was maximal: single i.v. bolus: 10 mg/kg propofol; for time for which loss of righting reflex and grip strength was maximal / effect on paw withdrawal threshold / effect on righting reflex and grip strength: 275 mg/kg melatonin; for effect on paw withdrawal threshold / effect on righting reflex and grip strength / time by which loss of righting reflex and grip strength resolved: single i.v. bolus: 20 mg/kg thiopental, 10 mg/kg propofol; for time by which loss of righting reflex and grip strength resolved: 275 mg/kg melatonin (near baseline values)
Experimental: as §1, §2

[3] = Solubility of melatonin in 1-methyl-2-pyrrolidinone/propylene glycol/water solvent; assay type: physicochemical; details: solvent: 1 volume 1-methyl-2-pyrrolidinone, 1 volume propylene glycol, 2 volumes water
Source text: The volume ratios here expressed are preferred but generally can be within the range of 25% or less by volume of 1-methyl-2-pyrrolidinone.

[4] = tested on: rats; details: rat, in vivo, iv
[5] = tested on: patients; details: low-level doses sublingually, British Journal of Anesthesia 82(6):875-80(1999); cited from earlier work
[6] = tested on: male Sprague-Dawley rats; assay: Anesthetic effect of melatonin given through a jugular catheter to rats (Intralipid and cyclodextrin preparations); assay type: in vivo, rat; details: for anesthetic effect (righting reflex) / anesthetic effect (righting reflex, eyelash reflex, hind paw pressure): 50 mg/ml
Experimental: All experiments were carried out in male Sprague-Dawley rats (300-350 g). Rats were maintained on a 12 hour light/12 hour dark cycle with free access to food and water. All surgical procedures were performed under sterile conditions (skin preparation, sterile filed drape, gloves, mask, etc.). All instruments and materials were ethylene oxide sterilized. Non-fasting adult male Sprague Dawley rats (˜300 gm) were anesthetized with halothane in oxygen and weighed. The hair over the ventral neck and over the back (between the scapulae) was removed with an electric razor. In the supine position the ventral neck was washed with povidone-iodine, followed by a 3-cm skin incision, just left of mid-line. All bleeding points were cauterized. Both the left jugular vein and left common carotid artery were isolated via blunt dissection. The left jugular vein was cannulated with a heparinized (20 U/ml) saline-filled silastic catheter (0.012-in ID, 0.025-in OD) advanced ˜3-cm into the right atrium. The jugular catheter was secured to the vein with 4-0 silk at the point of insertion, as well as at the rostral jugular ligature. After implantation of intravascular catheters, rats were housed in individual stainless steel cages. […] Crystalline Melatonin powder was obtained from Sigma (Sigma Chemical Co. St. Louis, Mo.).

[7] = Anesthetic effect compared with melatonin; details: in vivo
[8] = Rat 1, 315 mg/kg, in 40% cyclodextrin
[9] = Rat 2, 374 mg/kg, in 40% cyclodextrin

## CC(C)c1cccc(C(C)C)c1O [propofol]
[1]
  estimated ED95 (and 95% CI) for loss of righting reflex: 14.9 (6.4-34.9) mg/kg
  effect on righting reflex, grip strength and eyelash reflex: progressive loss of righting reflex, grip strength and eyelash reflex
[2]
  time for which loss of righting reflex and grip strength was maximal: 5 min
  effect on paw withdrawal threshold: significant increase in paw withdrawal threshold of similar duration
  effect on righting reflex and grip strength: immediate loss of righting reflex and grip strength
  time by which loss of righting reflex and grip strength resolved: ≤ 10 min

## COc1ccc2[nH]cc(CCNC(C)=O)c2c1 [melatonin, N-acetyl-5-methoxytryptamine]
[3]
  concentration to which melatonin can be dissolved: ≤ 300 mg/mL
[4]
  toxic side effects: without causing toxic side effects
[1]; cumulative i.v. doses of 70 mg/kg
  effect on paw withdrawal threshold: dose-dependently increased paw withdrawal threshold
[1]
  estimated ED95 (and 95% CI) for loss of righting reflex: 312 (205-476) mg/kg
  effect on righting reflex, grip strength and eyelash reflex: progressive loss of righting reflex and grip strength, but did not appreciably blunt the eyelash reflex
[1]; i.v.
  doses at which the increase in paw withdrawal threshold was apparent: ≥ 140 mg/kg
[2]; single i.v. bolus 275 mg/kg
  time for which the increase in paw withdrawal threshold persisted: at least 20 min
[2]
  time for which loss of righting reflex and grip strength was maximal: 5 min
  effect on paw withdrawal threshold: increased paw withdrawal threshold as compared to vehicle
  effect on righting reflex and grip strength: immediate loss of righting reflex and grip strength
  time by which loss of righting reflex and grip strength resolved: ≤ 15 min
[5]
  anxiety and sedation before operation: significant decrease in anxiety levels and an increase in levels of sedation before operation
[6]; Rat 1, 250 mg/kg followed about 1 minute later by 65 mg/kg, Intralipid + Ringer's Lactate
  anesthetic effect (righting reflex): very drugged but did not lose righting reflex
[6]; Rat 1, 315 mg/kg, cyclodextrin 40% + Intralipid
  anesthetic effect (righting reflex): moves slowly but no loss of righting reflex
[6]; [8]
  anesthetic effect (ptosis, eye blink, paw pinch): ptosis, loss of eye blink response and loss of paw pinch response to a pressure of 60 mmHg
  time for which the righting reflex was lost: 27 min
[6]; Rat 2, 250 mg/kg, Intralipid + Ringer's Lactate
  anesthetic effect (righting reflex, eyelash reflex, hind paw pressure): loss of righting and eyelash reflexes and inability to pull his hind paw in response to pressure applied to it
[6]; [9]
  anesthetic effect (ptosis, eye blink): ptosis and loss of eye blink response
  time for which the righting reflex was lost: 15 min
[6]; Rat 2, 374 mg/kg, in 40% cyclodextrin, pressure of 60 mmHg
  paw pinch response: pulling his paw without vocalization
[6]; Rat 2, 460 mg/kg, cyclodextrin 40% + Intralipid
  anesthetic effect (righting reflex): loss of righting reflex
[6]; Rat 3, 320 mg/kg, Intralipid + Ringer's Lactate
  anesthetic effect (righting reflex, eyelash reflex, hind paw pressure): loss of righting and eyelash reflexes and inability to pull his hind paw in response to pressure applied to it
[6]; Rat 4, 370 mg/kg, Intralipid + Ringer's Lactate
  anesthetic effect (righting reflex, eyelash reflex, hind paw pressure): loss of righting and eyelash reflexes and inability to pull his hind paw in response to pressure applied to it

## CCCC(C)C1(CC)C(=O)NC(=S)NC1=O (stereo not drawn) [thiopental]
[1]
  estimated ED95 (and 95% CI) for loss of righting reflex: 23.8 (15.4-36.7) mg/kg
  effect on righting reflex, grip strength and eyelash reflex: progressive loss of righting reflex, grip strength and eyelash reflex
[2]; single i.v. bolus 20 mg/kg
  time at which loss of righting reflex and grip strength was maximal: 1 min
[2]
  effect on paw withdrawal threshold: not accompanied by a change in paw withdrawal threshold
  effect on righting reflex and grip strength: immediate loss of righting reflex and grip strength
  time by which loss of righting reflex and grip strength resolved: ≤ 15 min

## COc1ccc2[nH]c(C(F)(F)F)c(CCNC(C)=O)c2c1 [2-trifluoromethylmelatonin]
[7]
  anesthetic effect relative to melatonin: substantially more active in anesthetic effect than melatonin itself
